US11739098B2 (BRISTOL-MYERS SQUIBB COMPANY, priority 2017, dated 2023)

Legend:
Type in all cases: cell-based
[1] = molecular target: T1, human TLR7 (Homo sapiens, UniProt Q9NYK1); assay: TLR7 inhibition reporter assay (HEK-Blue cells, SEAP reporter, gardiquimod stimulation); conditions: HEK-Blue cells overexpressing human TLR7, SEAP reporter, gardiquimod 7.5 μM
T1 construct: host or cells: HEK-Blue cells (HEK293-derived reporter line)
T1 sequence (Q9NYK1 27-1049): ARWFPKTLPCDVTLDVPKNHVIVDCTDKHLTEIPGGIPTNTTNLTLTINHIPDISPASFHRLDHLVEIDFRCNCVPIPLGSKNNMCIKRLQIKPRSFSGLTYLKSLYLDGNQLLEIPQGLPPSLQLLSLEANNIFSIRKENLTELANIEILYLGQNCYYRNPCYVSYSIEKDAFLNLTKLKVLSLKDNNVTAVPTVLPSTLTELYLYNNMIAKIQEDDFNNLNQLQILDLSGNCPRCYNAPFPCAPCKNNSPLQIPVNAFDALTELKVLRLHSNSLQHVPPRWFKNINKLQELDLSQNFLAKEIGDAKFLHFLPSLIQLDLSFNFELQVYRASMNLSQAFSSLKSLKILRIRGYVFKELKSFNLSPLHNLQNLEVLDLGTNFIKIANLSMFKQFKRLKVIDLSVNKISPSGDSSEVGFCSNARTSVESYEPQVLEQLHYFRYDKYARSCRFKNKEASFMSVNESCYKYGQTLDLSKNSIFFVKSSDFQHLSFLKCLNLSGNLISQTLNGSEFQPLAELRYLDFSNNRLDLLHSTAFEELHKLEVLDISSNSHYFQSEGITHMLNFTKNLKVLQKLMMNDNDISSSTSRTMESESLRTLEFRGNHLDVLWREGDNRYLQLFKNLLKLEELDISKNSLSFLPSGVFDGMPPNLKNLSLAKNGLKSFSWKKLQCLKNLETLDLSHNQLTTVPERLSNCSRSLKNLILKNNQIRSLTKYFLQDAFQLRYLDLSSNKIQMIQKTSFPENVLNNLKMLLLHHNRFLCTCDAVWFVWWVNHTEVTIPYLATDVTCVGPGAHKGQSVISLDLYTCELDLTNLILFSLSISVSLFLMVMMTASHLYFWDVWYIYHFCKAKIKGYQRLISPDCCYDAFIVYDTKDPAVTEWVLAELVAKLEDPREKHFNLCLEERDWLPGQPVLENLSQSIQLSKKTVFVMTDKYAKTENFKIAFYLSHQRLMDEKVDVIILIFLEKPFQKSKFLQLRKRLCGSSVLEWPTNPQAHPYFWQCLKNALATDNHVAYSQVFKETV
In short: (§1)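 HEK-Blue cells overexpressing the receptor, with NF-κB/AP-1-driven SEAP, were pre-treated 30 min at room temperature with compound (0.05 nM–50 μM), then stimulated with gardiquimod 7.5 μM (TLR7), R848 15.9 μM (TLR8) or ODN2006 5 nM (TLR9). SEAP was read after 22 h at 37 °C as percent inhibition.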

[2] = molecular target: T2, human TLR9 (Homo sapiens, UniProt Q9NR96); assay: TLR9 inhibition reporter assay (HEK-Blue cells, SEAP reporter, ODN2006 stimulation); conditions: HEK-Blue cells overexpressing human TLR9, SEAP reporter, ODN2006 5 nM
T2 construct: host or cells: HEK-Blue cells (HEK293-derived reporter line)
T2 sequence (Q9NR96 26-1032): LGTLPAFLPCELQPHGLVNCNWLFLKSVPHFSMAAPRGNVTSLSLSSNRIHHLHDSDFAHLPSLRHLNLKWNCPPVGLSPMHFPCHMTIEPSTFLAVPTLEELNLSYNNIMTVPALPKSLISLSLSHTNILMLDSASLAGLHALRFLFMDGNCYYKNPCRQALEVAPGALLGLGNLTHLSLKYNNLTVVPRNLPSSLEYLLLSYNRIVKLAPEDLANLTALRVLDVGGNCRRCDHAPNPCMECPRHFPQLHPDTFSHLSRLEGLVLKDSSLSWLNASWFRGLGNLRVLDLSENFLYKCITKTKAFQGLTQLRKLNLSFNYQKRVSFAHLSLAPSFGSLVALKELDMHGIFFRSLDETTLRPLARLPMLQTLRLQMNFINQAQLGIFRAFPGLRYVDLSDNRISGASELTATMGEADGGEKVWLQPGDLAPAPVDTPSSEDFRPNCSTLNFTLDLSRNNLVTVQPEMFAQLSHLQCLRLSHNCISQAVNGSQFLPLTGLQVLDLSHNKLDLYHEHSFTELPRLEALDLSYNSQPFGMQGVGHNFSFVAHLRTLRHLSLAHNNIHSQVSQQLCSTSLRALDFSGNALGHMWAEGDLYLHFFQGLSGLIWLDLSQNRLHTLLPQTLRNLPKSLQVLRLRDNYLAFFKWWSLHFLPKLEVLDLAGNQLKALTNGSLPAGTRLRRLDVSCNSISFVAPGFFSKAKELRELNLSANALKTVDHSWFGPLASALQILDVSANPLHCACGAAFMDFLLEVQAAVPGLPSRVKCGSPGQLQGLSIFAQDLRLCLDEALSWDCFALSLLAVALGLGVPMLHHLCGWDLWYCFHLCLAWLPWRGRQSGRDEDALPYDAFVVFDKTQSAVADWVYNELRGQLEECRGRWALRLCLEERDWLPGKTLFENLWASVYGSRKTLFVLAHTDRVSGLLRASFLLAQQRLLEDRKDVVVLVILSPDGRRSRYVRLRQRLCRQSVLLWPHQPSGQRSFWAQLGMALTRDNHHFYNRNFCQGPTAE
In short: as §1

[3] = molecular target: T3, human TLR8 (Homo sapiens, UniProt Q9NR97); assay: TLR8 inhibition reporter assay (HEK-Blue cells, SEAP reporter, R848 stimulation); conditions: HEK-Blue cells overexpressing human TLR8, SEAP reporter, R848 15.9 μM
T3 construct: host or cells: HEK-Blue cells (HEK293-derived reporter line)
T3 sequence (Q9NR97 27-1041): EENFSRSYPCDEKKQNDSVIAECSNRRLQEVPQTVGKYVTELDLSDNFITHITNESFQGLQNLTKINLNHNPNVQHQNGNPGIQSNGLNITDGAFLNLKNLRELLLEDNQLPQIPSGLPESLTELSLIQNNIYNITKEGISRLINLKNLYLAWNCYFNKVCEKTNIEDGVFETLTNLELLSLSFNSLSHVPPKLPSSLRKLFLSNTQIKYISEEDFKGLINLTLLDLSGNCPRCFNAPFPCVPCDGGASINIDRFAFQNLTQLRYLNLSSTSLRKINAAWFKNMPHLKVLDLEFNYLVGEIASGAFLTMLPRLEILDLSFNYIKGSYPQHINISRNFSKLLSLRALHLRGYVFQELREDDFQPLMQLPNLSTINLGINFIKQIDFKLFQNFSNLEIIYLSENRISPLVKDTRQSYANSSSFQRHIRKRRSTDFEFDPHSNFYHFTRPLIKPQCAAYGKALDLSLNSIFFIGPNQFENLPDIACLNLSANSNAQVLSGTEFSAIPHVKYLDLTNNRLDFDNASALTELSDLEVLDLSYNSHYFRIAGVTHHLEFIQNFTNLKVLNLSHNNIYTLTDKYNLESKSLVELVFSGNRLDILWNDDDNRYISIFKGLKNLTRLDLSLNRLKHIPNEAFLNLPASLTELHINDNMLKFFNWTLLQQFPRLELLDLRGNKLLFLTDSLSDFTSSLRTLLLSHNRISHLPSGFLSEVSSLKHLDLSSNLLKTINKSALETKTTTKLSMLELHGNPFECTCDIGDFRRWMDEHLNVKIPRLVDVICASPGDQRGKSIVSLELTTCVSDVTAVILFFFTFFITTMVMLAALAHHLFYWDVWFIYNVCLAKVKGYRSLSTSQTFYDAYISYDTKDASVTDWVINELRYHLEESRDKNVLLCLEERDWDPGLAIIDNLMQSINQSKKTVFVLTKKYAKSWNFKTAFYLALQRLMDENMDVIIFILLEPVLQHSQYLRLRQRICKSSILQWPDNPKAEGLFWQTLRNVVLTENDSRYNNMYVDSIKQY
In short: as §1

IC50 [1] | IC50 [2] | IC50 [3] | SMILES
> 3130 nM | 1000 to 50000 nM | > 3130 nM | CC(C)c1c(-c2cn3cnnc3c(=O)n2C)[nH]c2ccc(C3CCNCC3)cc12 [Example 237, 6-(3-isopropyl-5-(piperidin-4-yl)-1H-indol-2-yl)-7-methyl-[1,2,4]triazolo[4,3-a]pyrazin-8(7H)-one]
< 100 nM | 1000 to 50000 nM | < 100 nM | Cc1cc(-c2[nH]c3ccc(C4CCN(C(=O)CN(C)C(C)C)CC4)cc3c2C(C)C)cn2nnnc12 [Example 480, 2-(isopropyl(methyl)amino)-1-(4-(3-isopropyl-2-(8-methyltetrazolo[1,5-a]pyridin-6-yl)-1H-indol-5-yl)piperidin-1-yl)ethan-1-one]
< 100 nM | 1000 to 50000 nM | < 100 nM | CC(=O)NCCNCC(=O)N1CCC(c2ccc3[nH]c(-c4ccnc5[nH]ncc45)c(C(C)C)c3c2)CC1 [Example 573, N-(2-((2-(4-(3-isopropyl-2-(1H-pyrazolo[3,4-b]pyridin-4-yl)-1H-indol-5-yl)piperidin-1-yl)-2-oxoethyl)amino)ethyl)acetamide]
< 100 nM | < 100 nM | < 100 nM | CCc1c(-c2ccc3nccn3c2)[nH]c2cc(F)c(C3CCNCC3)c(F)c12 [Example 257, 6-(3-ethyl-4,6-difluoro-5-(piperidin-4-yl)-1H-indol-2-yl)imidazo[1,2-a]pyridine]
100 to 1000 nM | 1000 to 50000 nM | 1000 to 50000 nM | Cc1cc2nc(-c3[nH]c4ccc(C5CCNCC5)cc4c3C(C)C)ccn2n1 [Example 149, 5-(3-isopropyl-5-(piperidin-4-yl)-1H-indol-2-yl)-2-methylpyrazolo[1,5-a]pyrimidine]
< 100 nM | 100 to 1000 nM | < 100 nM | CC(C)c1c(-c2cc(F)c3nccn3c2)[nH]c2ccc(C3CCNCC3)cc12 [Example 118, 8-fluoro-6-(3-isopropyl-5-(piperidin-4-yl)-1H-indol-2-yl)imidazo[1,2-a]pyridine]
< 100 nM | 1000 to 50000 nM | 100 to 1000 nM | CC(C)c1c(-c2ccn3nccc3c2)[nH]c2ccc(C3CCN(C(=O)CN(C)C)CC3)cc12 [Example 542, 2-(dimethylamino)-1-(4-(3-isopropyl-2-(pyrazolo[1,5-a]pyridin-5-yl)-1H-indol-5-yl)piperidin-1-yl)ethan-1-one]
< 100 nM | 1000 to 50000 nM | < 100 nM | Cc1cc(-c2[nH]c3ccc(C4CCN(C(=O)CN5C[C@H]6CC[C@@H](C5)O6)CC4)cc3c2C(C)C)cn2nnnc12 [Example 484, 2-((1R,5S)-8-oxa-3-azabicyclo[3.2.1]octan-3-yl)-1-(4-(3-isopropyl-2-(8-methyltetrazolo[1,5-a]pyridin-6-yl)-1H-indol-5-yl)piperidin-1-yl)ethan-1-one]
< 100 nM | 1000 to 50000 nM | < 100 nM | Cc1cc(-c2[nH]c3ccc(C4CCNCC4)cc3c2C(C)C)c2ccccc2n1 [Example 104, 4-(3-isopropyl-5-(piperidin-4-yl)-1H-indol-2-yl)-2-methylquinoline]
100 to 1000 nM | 100 to 1000 nM | < 100 nM | Cc1cc(-c2[nH]c3ccc(C4CCNCC4)cc3c2C(C)C)cc2nccn12 [Example 161, 7-(3-isopropyl-5-(piperidin-4-yl)-1H-indol-2-yl)-5-methylimidazo[1,2-a]pyridine]
< 100 nM | 100 to 1000 nM | < 100 nM | Cc1nc[nH]c1CN1CCC(c2ccc3[nH]c(-c4ccnc5[nH]cnc45)c(C(C)C)c3c2)CC1 [Example 861, 7-(3-isopropyl-5-(1-((4-methyl-1H-imidazol-5-yl)methyl)piperidin-4-yl)-1H-indol-2-yl)-3H-imidazo[4,5-b]pyridine]
< 100 nM | 100 to 1000 nM | 100 to 1000 nM | CC(C)c1c(-c2ccc3nccn3c2)[nH]c2ccc(C3CCNCC3)cc12 [Example 188, 6-(3-isopropyl-5-(piperidin-4-yl)-1H-indol-2-yl)imidazo[1,2-a]pyridine]
< 100 nM | 100 to 1000 nM | 100 to 1000 nM | Cc1cn2cc(-c3[nH]c4ccc(C5CCNCC5)cc4c3C(C)C)c(C)cc2n1 [Example 122, 6-(3-isopropyl-5-(piperidin-4-yl)-1H-indol-2-yl)-2,7-dimethylimidazo[1,2-a]pyridine]
< 100 nM | 100 to 1000 nM | < 100 nM | Cc1c(-c2[nH]c3ccc(C4CCN(C(=O)CN(C)C)CC4)cc3c2C(C)C)cn2ccnc2c1C [Example 549, 2-(dimethylamino)-1-(4-(2-(7,8-dimethylimidazo[1,2-a]pyridin-6-yl)-3-isopropyl-1H-indol-5-yl)piperidin-1-yl)ethan-1-one]
< 100 nM | 100 to 1000 nM | < 100 nM | CCN(CC)C(=O)C1CCCN(CC(=O)N2CCC(c3ccc4[nH]c(-c5ccnc6[nH]ncc56)c(C(C)C)c4c3)CC2)C1 (stereo not drawn) [Example 588, N,N-diethyl-1-(2-(4-(3-isopropyl-2-(1H-pyrazolo[3,4-b]pyridin-4-yl)-1H-indol-5-yl)piperidin-1-yl)-2-oxoethyl)piperidine-3-carboxamide]
